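Exposure lasted 48 hours, with cells grown in 96-well plates and compounds tested at five concentrations. GI50 is the concentration that inhibits growth by half.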 The source made the active and inactive calls. Rule as the data show it: active = GI50 up to about 1.1 µM and inactive = higher.
How the values were obtained:
Assay in all cases: NCI-60 cell line screen, 48 h
COLO 205 = tested on: COLO 205
MDA-MB-435 = tested on: MDA-MB-435
IGROV-1 = tested on: IGROV-1
SF-268 = tested on: SF-268
MCF7 = tested on: MCF7
EKVX = tested on: EKVX
HT-29 = tested on: HT-29
HCC 2998 = tested on: HCC 2998
NCI-H226 = tested on: NCI-H226
MDA-MB-231 = tested on: MDA-MB-231
SK-MEL-5 = tested on: SK-MEL-5
OVCAR-3 = tested on: OVCAR-3
NCI-H23 = tested on: NCI-H23
NCI-H522 = tested on: NCI-H522
SNB-19 = tested on: SNB-19
UO-31 = tested on: UO-31
DU-145 = tested on: DU-145
TK-10 = tested on: TK-10
CAKI-1 = tested on: CAKI-1
T47D = tested on: T47D
HOP-62 = tested on: HOP-62
Hs-578T = tested on: Hs-578T
SN12C = tested on: SN12C
HOP-92 = tested on: HOP-92
RXF 393 = tested on: RXF 393
A549 = tested on: A549
OVCAR-5 = tested on: OVCAR-5
U-251 = tested on: U-251
OVCAR-4 = tested on: OVCAR-4
SNB-75 = tested on: SNB-75
RPMI-8226 = tested on: RPMI-8226
NCI-H460 = tested on: NCI-H460
Malme-3M = tested on: Malme-3M
SF-539 = tested on: SF-539
NCI/ADR-RES = tested on: NCI/ADR-RES
HCT-15 = tested on: HCT-15
A498 = tested on: A498
BT-549 = tested on: BT-549
CCRF-CEM = tested on: CCRF-CEM
HCT-116 = tested on: HCT-116
SF-295 = tested on: SF-295
UACC-257 = tested on: UACC-257
K562 = tested on: K562
786-0 = tested on: 786-0
SK-OV-3 = tested on: SK-OV-3
ACHN = tested on: ACHN
PC-3 = tested on: PC-3
UACC-62 = tested on: UACC-62
M14 = tested on: M14
SW-620 = tested on: SW-620
SR = tested on: SR
SK-MEL-28 = tested on: SK-MEL-28
SK-MEL-2 = tested on: SK-MEL-2
KM12 = tested on: KM12
MDA-N = tested on: MDA-N
OVCAR-8 = tested on: OVCAR-8
MOLT-4 = tested on: MOLT-4
HL-60 = tested on: HL-60
LOX IMVI = tested on: LOX IMVI

C[C@]12OC[C@H](c3ccccc3)N1C(=O)C1[C@H]2CC12SCCS2 (some centres not stated)
GI50 (COLO 205): > 100 µM (inactive)
GI50 (MDA-MB-435): > 100 µM (inactive)
GI50 (IGROV-1): > 100 µM (inactive)
GI50 (SF-268): > 100 µM (inactive)
GI50 (MCF7): > 100 µM (inactive)
GI50 (EKVX): > 100 µM (inactive)
GI50 (HT-29): > 100 µM (inactive)
GI50 (HCC 2998): > 100 µM (inactive)
GI50 (NCI-H226): > 100 µM (inactive)
GI50 (MDA-MB-231): > 100 µM (inactive)
GI50 (SK-MEL-5): > 100 µM (inactive)
GI50 (OVCAR-3): > 100 µM (inactive)
GI50 (NCI-H23): > 100 µM (inactive)
GI50 (NCI-H522): > 100 µM (inactive)
GI50 (SNB-19): > 100 µM (inactive)
GI50 (UO-31): > 100 µM (inactive)
GI50 (DU-145): > 100 µM (inactive)
GI50 (TK-10): > 100 µM (inactive)
GI50 (CAKI-1): > 100 µM (inactive)
GI50 (T47D): > 100 µM (inactive)
GI50 (HOP-62): > 100 µM (inactive)
GI50 (Hs-578T): > 100 µM (inactive)
GI50 (SN12C): > 100 µM (inactive)
GI50 (HOP-92): > 100 µM (inactive)
GI50 (RXF 393): > 100 µM (inactive)
GI50 (A549): > 100 µM (inactive)
GI50 (OVCAR-5): > 100 µM (inactive)
GI50 (U-251): > 100 µM (inactive)
GI50 (OVCAR-4): > 100 µM (inactive)
GI50 (SNB-75): > 100 µM (inactive)
GI50 (RPMI-8226): > 100 µM (inactive)
GI50 (NCI-H460): > 100 µM (inactive)
GI50 (Malme-3M): > 100 µM (inactive)
GI50 (SF-539): > 100 µM (inactive)
GI50 (NCI/ADR-RES): > 100 µM (inactive)
GI50 (HCT-15): > 100 µM
GI50 (A498): > 100 µM (inactive)
GI50 (BT-549): > 100 µM (inactive)
GI50 (CCRF-CEM): > 100 µM (inactive)
GI50 (HCT-116): > 100 µM (inactive)
GI50 (SF-295): > 100 µM (inactive)
GI50 (UACC-257): > 100 µM (inactive)
GI50 (K562): > 100 µM (inactive)
GI50 (786-0): > 100 µM (inactive)
GI50 (SK-OV-3): > 100 µM (inactive)
GI50 (ACHN): > 100 µM (inactive)
GI50 (PC-3): > 100 µM (inactive)
GI50 (UACC-62): > 100 µM (inactive)
GI50 (M14): > 100 µM (inactive)
GI50 (SW-620): > 100 µM (inactive)
GI50 (SR): > 100 µM (inactive)
GI50 (SK-MEL-28): > 100 µM (inactive)
GI50 (SK-MEL-2): > 100 µM (inactive)
GI50 (KM12): > 100 µM (inactive)
GI50 (MDA-N): > 100 µM (inactive)
GI50 (OVCAR-8): > 100 µM (inactive)
GI50 (MOLT-4): > 100 µM (inactive)

CN(C)C1C(CO)OC(n2cnc3c(N)ncnc32)C1O (configuration not stated)
GI50 (COLO 205): > 100 µM (inactive)
GI50 (MDA-MB-435): > 100 µM (inactive)
GI50 (IGROV-1): > 100 µM (inactive)
GI50 (HL-60): > 100 µM (inactive)
GI50 (SF-268): > 100 µM (inactive)
GI50 (MCF7): > 100 µM (inactive)
GI50 (EKVX): > 100 µM (inactive)
GI50 (HT-29): > 100 µM (inactive)
GI50 (NCI-H226): > 100 µM (inactive)
GI50 (MDA-MB-231): > 100 µM (inactive)
GI50 (SK-MEL-5): > 100 µM (inactive)
GI50 (OVCAR-3): > 100 µM (inactive)
GI50 (NCI-H23): > 100 µM (inactive)
GI50 (NCI-H522): > 100 µM (inactive)
GI50 (SNB-19): > 100 µM (inactive)
GI50 (UO-31): > 100 µM (inactive)
GI50 (DU-145): > 100 µM (inactive)
GI50 (TK-10): > 100 µM (inactive)
GI50 (CAKI-1): > 100 µM (inactive)
GI50 (T47D): > 100 µM (inactive)
GI50 (HOP-62): > 100 µM (inactive)
GI50 (Hs-578T): > 100 µM (inactive)
GI50 (SN12C): > 100 µM (inactive)
GI50 (A549): > 100 µM (inactive)
GI50 (OVCAR-5): > 100 µM (inactive)
GI50 (U-251): > 100 µM (inactive)
GI50 (OVCAR-4): > 100 µM (inactive)
GI50 (SNB-75): > 100 µM (inactive)
GI50 (RPMI-8226): > 100 µM (inactive)
GI50 (NCI-H460): > 100 µM (inactive)
GI50 (SF-539): > 100 µM (inactive)
GI50 (NCI/ADR-RES): > 100 µM (inactive)
GI50 (HCT-15): > 100 µM
GI50 (A498): > 100 µM (inactive)
GI50 (BT-549): > 100 µM (inactive)
GI50 (CCRF-CEM): > 100 µM (inactive)
GI50 (HCT-116): > 100 µM (inactive)
GI50 (SF-295): > 100 µM (inactive)
GI50 (UACC-257): > 100 µM (inactive)
GI50 (LOX IMVI): > 100 µM (inactive)
GI50 (K562): > 100 µM (inactive)
GI50 (786-0): > 100 µM (inactive)
GI50 (SK-OV-3): > 100 µM (inactive)
GI50 (ACHN): > 100 µM (inactive)
GI50 (PC-3): > 100 µM (inactive)
GI50 (UACC-62): > 100 µM (inactive)
GI50 (M14): > 100 µM (inactive)
GI50 (SW-620): > 100 µM (inactive)
GI50 (SR): > 100 µM (inactive)
GI50 (SK-MEL-28): > 100 µM (inactive)
GI50 (SK-MEL-2): > 100 µM (inactive)
GI50 (KM12): > 100 µM (inactive)
GI50 (MDA-N): > 100 µM (inactive)
GI50 (OVCAR-8): > 100 µM (inactive)
GI50 (MOLT-4): > 100 µM (inactive)

— ChEMBL document CHEMBL1201862, “PubChem BioAssay data set” (2004)
